Values quoted from earlier work as cited in patent publication US6531488B1, “Method of treating neurodegenerative diseases” (Merck & Co., Inc., priority 1998, dated 2003).
Structures can show the parent of a compound that is named as a salt.

Test system: patients with Alzheimer's disease
Details: ARICEPT administered alone; patients diagnosed by NINCDS and DMS III-R criteria; assessed with ADAS-cog and CIBIC

COc1cc2c(cc1OC)C(=O)C(CC1CCN(Cc3ccccc3)CC1)C2 (racemic) [ARICEPT, (±)-2,3-dihydro-5,6-diomethoxy-2-[[1-(phenylmethyl)-4-piperidinyl]methyl]-1H-indene-1-one hydrochloride]
effectiveness for the treatment of the symptoms of Alzheimer's disease: effective
